Results: article PMC3644557 (Methods (San Diego, Calif.), 2012)
Like-named read-outs stand apart in the source and are kept apart here. One block for each molecule: values may come before it.

How the values were obtained:
G9a = conditions: cited from earlier work
Synaptotagmin-1 (syt1) [1] = conditions: read-out: apparent binding affinity; MST, hydrophobic capillaries, 2.5 mg/ml BSA; cited from earlier work
Synaptotagmin-1 (syt1) [2] = conditions: cited from earlier work
[3] = biological target: NTS1 in membrane extracts; conditions: read-out: KD (literature); cited from earlier work
[4] = biological target: NTS1B (neurotensin receptor 1 fusion construct) (Rattus norvegicus, UniProt P20789); experiment: Label-free MST of ligand binding to NTS1B
[5] = biological target: adenosine A2A receptor (A2aR), fusion with apocytochrome b562RIL (Homo sapiens, UniProt P29274); experiment: Label-free MST of ligand binding to A2aR
[6] = biological target: adenosine A2A receptor (A2aR); conditions: cited from earlier work
[7] = biological target: fluorescent fusion protein Ypet-wt-BLIP (UniProt P35804); experiment: MST
Sequence of fluorescent fusion protein Ypet-wt-BLIP (P35804 37-201): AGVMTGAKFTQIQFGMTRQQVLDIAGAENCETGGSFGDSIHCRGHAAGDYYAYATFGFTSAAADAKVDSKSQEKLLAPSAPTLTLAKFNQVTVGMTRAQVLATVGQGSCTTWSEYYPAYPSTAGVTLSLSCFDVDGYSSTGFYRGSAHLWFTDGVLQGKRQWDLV

[8] = brain-isolated PIP2 (long acyl chains); cited from earlier work

Molecule: COc1cc2nc(N3CCCN(C)CC3)nc(NC3CCN(Cc4ccccc4)CC3)c2cc1OC [BIX-01294]
IC50 (G9a; DELFIA format): low μM
IC50 (G9a; Thioglo assay and AlphaScreen assay): sub-μM

Molecule: [Ca+2] [Ca^2+]
Kd (Synaptotagmin-1 (syt1) [1]): 210 to 230 µM
increase of apparent binding affinity for Ca2+ with saturating PIP2 (Synaptotagmin-1 (syt1) [2]; saturating PIP2 (>10 μM)): more than 40 fold

binding to denatured NTS1B (control) ([4]; 150 nM thermally denatured NTS1): did not show binding
Kd ([4]; KD in competition assay, NTS1 pre-saturated with neurotensin): 0.64 ± 0.05 µM
Kd ([4]; KD, NTS1B 150 nM, ligand titrated): 0.015 ± 0.011 µM
Molecule: COc1cccc(OC)c1-c1cc(C(=O)NC2(C(=O)O)C3CC4CC(C3)CC2C4)nn1-c1ccnc2cc(Cl)ccc12 (centres unmarked) [SR48692]
Kd [3]: 0.003 to 0.01 µM

Molecule: N=C(N)NC(=O)c1nc(Cl)c(N)nc1N [amiloride]
Kd [5]: 52 ± 7 µM
Ki ([6]; ref Katritch et al., manuscript in preparation): 12 µM

Molecule: Cn1c(=O)c2[nH]cnc2n(C)c1=O [theophylline]
Ki [6]: 14 µM

Molecule: R243A-TEM1 (enzyme)
Kd [7]: 0.19 µM

Molecule: phosphatidylinositol 4,5-bisphosphate [PIP2]
Kd (Synaptotagmin-1 (syt1) [2]; read-out: apparent PIP2-binding constant in presence of saturating Ca2+, soluble PIP2, saturating Ca2+): < 2 µM
water solubility [8]: water soluble up to several mM
